According to patent publication US12054509B2, “Antimicrobial compounds, compositions, and uses thereof” (Lakewood Amedex, Inc., priority 2017, dated 2024):
Converted amounts (≈) assume the structure as drawn. Like-named read-outs stand apart in the source and are kept apart here.

Experiments:
Type in all cases: cell-based
Candida Albicans = experiment: MIC against a single isolate (Example 26); settings: read-out: C. albicans MIC
Method: (§1) Bacterial strains evaluated in this study include Escherichia coli, Klebsiella spp, Serratia marcescens, Proteus mirabilis/vulgaris, Citrobacter spp, Providencia spp, Morganella morganii, Pseudomonas aeruginosa, Staphylococcus aureus (MRSA only), and Enterococcus faecalis. Nu-8 test solutions are adjusted to pH 3.5 with citric acid, and MIC is evaluated per the CLSI methods in Mueller-Hinton broth supplemented accordingly to facilitate growth of specific strains.
(§2) MIC was determined as per Example 9 using LAI-101, LAI-102, Nu-10, LAI-105, LAI-106, Nu-3, and Nu-8 against a single isolate of Escherichia coli. Pseudomonas aeruginosa, Staphylococcus aureus (MRSA only), and Candida Albicans. For all microbe species, the LAI-101, LAI-102, Nu-10, LAI-105, and LAI-106 all perform at least as well as, and in many experiments better than, Nu-8 and Nu-3, which are both already quite active compounds.

Escherichia coli = experiment: MIC against a single isolate (Example 26); settings: read-out: E. coli MIC
Method: as §1, §2

Pseudomonas aeruginosa = experiment: MIC against a single isolate (Example 26); settings: read-out: P. aeruginosa MIC
Method: as §1, §2

[1] = test system: Staphylococcus aureus (MRSA only); experiment: MIC against a single isolate (Example 26); settings: read-out: S. aureus MIC
Method: as §1, §2

E. coli ATCC 25922 = experiment: Bacterial cytological profiling (Example 6), E. coli;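 as to cell wall deformations: tested at 1 0.5 and 0.25 times MIC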;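 as to effect on cell envelope: tested at 1 0.5 and 0.25 times MIC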
Method: (§3) This bacterial cytological profiling (BCP) study uses methods and materials described previously by Nonejuie, P., Burkart, M., Poglianoa, K., Pogiano, J. (2013). Bacterial cytological profiling rapidly identifies the cellular pathways targeted by antibacterial molecules. Proc. Natl. Acad. Sci. U.S.A. 110(40):16169-16174. doi: 10.1073/pnas.1311066110.
(§4) Wild type strains of E. coli ATCC 25922 or P. aeruginosa K2732 are grown in rich media (unbuffered 2× Lysogeny broth [LB]) at 30 C to an OD600˜0.4. These cultures are then split and each sample treated with the appropriate concentration of Nu-8 in unbuffered or buffered LB (final mixture OD600˜0.1). Cells exposed without Nu-8 are buffered to pH 4 with phosphoric acid.
(§5) The BCP is performed in LB media buffered to pH 4. The minimum inhibitory concentration (MIC) is measured for Nu-3, Nu-4, Nu-5, and Nu-8 against each bacterial strain. As one of ordinary skill in the art understands, minimum inhibitory concentrations are the lowest concentration of an antimicrobial that will inhibit the visible growth of a microorganism after overnight incubation. […] Cellular viability is assayed at three time points (5 minutes and 4 and 24 h following the onset of treatment).
(§6) For imaging E. coli, treated cells are stained with 1 μg/Ml FM4-64, 2 μg/mL DAPI, and 0.5 μM SYTOXGreen (Molecular Probes/Invitrogen). P. aeruginosa samples are stained 0.5 μM SYTOX Green, 28 μg/mL DAPI, and 4.5 μg/mL FM 4-64. Cells are transferred to an agarose pad (20% LB, 1% agarose) for imaging as described in Pogliano, J., Osborne, N., Sharp, M. D., Abanes-De Mello, A., Perez, A., Sun, Y.-L. and Pogliano, K. (1999), A vital stain for studying membrane dynamics in bacteria: a novel mechanism controlling septation during Bacillus subtilis sporulation. Molecular Microbiology, 31: 1149-1159. doi:10.1046/j.1365-2958.1999.01255.x.

P. aeruginosa K2732 = experiment: Bacterial cytological profiling (Example 6), P. aeruginosa; settings: BCP;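 also: tested at 1 0.5 and 0.25 times MIC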
Method: as §3, §4, §5, §6

[2] = test system: wild type E. coli (ATCC 25922); experiment: Bacterial cytological profiling at pH 4, 5.5, 7 (Example 8), E. coli
Method: as §3, with “investigation” for “study”
(§7) For viable cell counts, cells are grown to OD600≈0.4 and diluted 1:1 into buffered or unbuffered media containing various compound concentrations. Samples are then collected and serially diluted (1:10) on a 96 well plate. Five microliters from each well are spotted on LB plates, incubated at 30° C., and viable cells are counted the next day.
(§8) Samples are collected at 10, 30, 120, and 240 min of exposure for viable cell count and imaging. For imaging, E. coli and S. aureus 200 μL of treated cells per time point are stained with 0.8 μg/mL FM4-64, 1.5 μg/mL DAPI, and 0.4 μM SYTOXGreen (Molecular Probes/Invitrogen). P. aeruginosa samples are stained 0.4 μM SYTOX Green, 28 μg/mL DAN, and 1 μg/mL FM 4-64. Cells are transferred to an agarose pad (20% LB, 1% agarose) for imaging.
(§9) For Nu-3 and Nu-8 stocks (at pH 4, 5.5 and 7), stock concentration is 500 mg/mL. For pH 4, the stocks are prepared by dissolving Nu-3 in 25 mM citrate buffer and Nu-8 in 350 mM citric acid. For pH 5.5, the stocks are prepared by dissolving Nu-3 in 25 mM citric-phosphate and Nu-8 in 25 mM critic. For pH 7, the stocks are prepared by dissolving Nu-3 and Nu-8 in 25 mM Sorensen phosphate buffer. 2×LB (lysogeny broth) solutions are prepared with 50 mM citrate buffer for pH 4, 50 mM citrate-phosphate buffer for pH 5.5, and 50 mM Sorensen phosphate buffer for pH 7.

[3] = test system: wild type P. aeruginosa (PAO1; K2732); experiment: Bacterial cytological profiling at pH 4, 5.5, 7 (Example 8), P. aeruginosa; settings: pH 5.5 and 7; 112.5 mg/mL
Method: as §3, with “investigation” for “study”
as §7, §8, §9

[4] = test system: methicillin susceptible S. aureus (ATCC 29213); experiment: Bacterial cytological profiling at pH 4, 5.5, 7 (Example 8), S. aureus
Method: as §3, with “investigation” for “study”
as §7, §8, §9

E. coli (ATCC 25922) = experiment: Time kill assay in saline at pH 3.5 (Example 27); settings: for Log10 CFU/mL: pH 3.5
Method: Log10 5 CFU of E. coli (ATCC 25922) were suspended in saline. Additionally, a sample of the saline only was prepared as a vehicle control (V.C.). Solutions of Nu-3, Nu-8, and Nu-10 at varying concentrations were adjusted to pH 3.5 with citric acid and added to the E. coli suspensions. At each time point (0, 1, 2.5, 5, 10, and 20 minutes), the treated bacterial suspensions were plated and incubated for 24 hrs, and each plate was read to determine the CFU count.
Tables 12-14 provide the time kill assay data for Nu-3 (Table 12), Nu-8 (Table 13) and Nu-10 (Table 14) against E. coli.

## CC(C)COP(=O)(O)OC[C@H]1O[C@@H](n2ccc(N)nc2=O)C[C@@H]1OP(=O)(O)OCC(C)C [LAI-101, ((2R,3S,5R)-5-(4-amino-2-oxopyrimidin-1(2H)-yl)-3-((hydroxy(isobutoxy)phosphoryl)-oxy)tetrahydrofuran-2-yl)methyl isobutyl hydrogen phosphate]
Candida Albicans
  MIC: 50000 µg/mL
Escherichia coli
  MIC: 5000 µg/mL
Pseudomonas aeruginosa
  MIC: 5000 µg/mL
[1]
  MIC: 5000 µg/mL

## CCCCOP(=O)(O)OC[C@H]1O[C@@H](n2cc(C)c(=O)[nH]c2=O)C[C@@H]1OP(=O)(O)OCCCC [Nu-3, reference compound]
E. coli ATCC 25922; BCP
  effect on cell envelope: affect the cell envelope
E. coli ATCC 25922; higher treatment concentrations, buffered pH 4
  DNA condensation: causes DNA condensation
E. coli ATCC 25922; unbuffered LB
  cell wall deformations: cause cell wall deformations
P. aeruginosa K2732
  effect on cell envelope: affect the cell envelope
[2]; pH 4, 112.5 mg/mL, up to 240 min
  cell viability (cell growth delay): 10^7 CFR/mL
[2]; pH 5.5 and 7
  effect on cell permeability, viability and growth: ineffective
[3]
  cell growth: no effect on cell growth
  increase/change in cell permeability: < 6%
[4]; pH 4, 125 mg/mL
  cell growth: slight reduction in cell growth
  cell permeability: < 10%
[4]; pH 4, 250 mg/mL
  cell permeability: < 10%
[4]; pH 5.5 and 7, 125 mg/mL and 250 mg/mL, up to 24 h
  cell growth: slightly reduce cell growth
Candida Albicans; single isolate
  MIC: 25000 µg/mL (≈ 48.6 mM)
Escherichia coli; single isolate
  MIC: 25000 µg/mL (≈ 48.6 mM)
Pseudomonas aeruginosa; single isolate
  MIC: 25000 µg/mL (≈ 48.6 mM)
[1]; single isolate
  MIC: > 50000 µg/mL
E. coli (ATCC 25922); 2.5% solution, 0 min
  Log10 CFU/mL: 5.20 Log10 CFU/mL
E. coli (ATCC 25922); 2.5% solution, 1 min
  Log10 CFU/mL: 3.38 Log10 CFU/mL
E. coli (ATCC 25922); 2.5% solution, 2.5 min
  Log10 CFU/mL: 2.55 Log10 CFU/mL
E. coli (ATCC 25922); 2.5% solution, 5 min
  Log10 CFU/mL: 1.99 Log10 CFU/mL
E. coli (ATCC 25922); 2.5% solution, 10 min
  Log10 CFU/mL: 0.00 Log10 CFU/mL
E. coli (ATCC 25922); 2.5% solution, 20 min
  Log10 CFU/mL: 0.00 Log10 CFU/mL
E. coli (ATCC 25922); 5% solution, 0 min
  Log10 CFU/mL: 5.20 Log10 CFU/mL
E. coli (ATCC 25922); 5% solution, 1 min
  Log10 CFU/mL: 3.00 Log10 CFU/mL
E. coli (ATCC 25922); 5% solution, 2.5 min
  Log10 CFU/mL: 2.10 Log10 CFU/mL
E. coli (ATCC 25922); 5% solution, 5 min
  Log10 CFU/mL: 0.00 Log10 CFU/mL
E. coli (ATCC 25922); 5% solution, 10 min
  Log10 CFU/mL: 0.00 Log10 CFU/mL
E. coli (ATCC 25922); 5% solution, 20 min
  Log10 CFU/mL: 0.00 Log10 CFU/mL
E. coli (ATCC 25922); 10% solution, 0 min
  Log10 CFU/mL: 5.20 Log10 CFU/mL
E. coli (ATCC 25922); 10% solution, 1 min
  Log10 CFU/mL: 2.85 Log10 CFU/mL
E. coli (ATCC 25922); 10% solution, 2.5 min
  Log10 CFU/mL: 0.00 Log10 CFU/mL
E. coli (ATCC 25922); 10% solution, 5 min
  Log10 CFU/mL: 0.00 Log10 CFU/mL
E. coli (ATCC 25922); 10% solution, 10 min
  Log10 CFU/mL: 0.00 Log10 CFU/mL
E. coli (ATCC 25922); 10% solution, 20 min
  Log10 CFU/mL: 0.00 Log10 CFU/mL
E. coli (ATCC 25922); concentration of 10%
  time to complete kill of the bacteria: ≤ 2.5 min

## Nc1ncnc2c1ncn2[C@H]1C[C@H](OP(=O)(O)OC2CCCCC2)[C@@H](COP(=O)(O)OC2CCCCC2)O1 [LAI-105, ((2R,3S,5R)-5-(6-amino-9H-purin-9-yl)-3-(((cyclohexyloxy)(hydroxy)phosphoryl)oxy)tetrahydrofuran-2-yl)methyl cyclohexyl hydrogen phosphate]
Candida Albicans; single isolate
  MIC: > 5000 µg/mL
Escherichia coli; single isolate
  MIC: > 5000 µg/mL
Pseudomonas aeruginosa; single isolate
  MIC: 5000 µg/mL
[1]; single isolate
  MIC: > 5000 µg/mL
